Key:
[1] = system: COLO-680N (Esophageal Squamous Cell Carcinoma); test: Bliss excess, mean over the matrix (fraction); higher = more synergy
Outline: (§1)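 Cell lines grown in DMEM/F12 or RPMI with 10% FBS were plated in 1536-well plates and held 24 hours at 37°C, 5% CO2 before 72 hours of exposure to two-drug dose matrices, with DMSO typically at 0.2%. CellTiter-Glo 2.0 luminescence gave viability, which was converted to inhibition. Vehicle wells were set to 0 and blank wells to 1. Combination Emax is the second-highest inhibition in the matrix, and Bliss excess is the observed combination effect minus the expected EA + EB − EA·EB, where EA and EB are the single-agent effects.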

[2] = system: HSC-39 (Gastric Carcinoma); test: as above
Outline: as §1

[3] = system: L-1236 (Hodgkin's Lymphoma); test: as above
Outline: as §1

[4] = system: LK-2 (Squamous Cell Lung Carcinoma); test: as above
Outline: as §1

[5] = system: MFE-280 (Endometrial Carcinoma); test: as above
Outline: as §1

[6] = system: NCI-H2342 (Lung Adenocarcinoma); test: as above
Outline: as §1

[7] = system: OPM-2 (Plasma Cell Myeloma); test: as above
Outline: as §1

[8] = system: OVMIU (Ovarian Carcinoma); test: as above
Outline: as §1

[9] = system: PANC-03-27 (Pancreatic Carcinoma); test: as above
Outline: as §1

[10] = system: PC-3_[JPC-3] (Lung Adenocarcinoma); test: as above
Outline: as §1

[11] = system: PSN1 (Pancreatic Carcinoma); test: as above
Outline: as §1

[12] = system: RCM-1 (Colorectal Carcinoma); test: as above
Outline: as §1

[13] = system: REH (B-Lymphoblastic Leukemia); test: as above
Outline: as §1

[14] = system: RKN (Other Solid Carcinomas); test: as above
Outline: as §1

SF539 (Glioblastoma) [15] = test: as above
Outline: as §1

[16] = system: SK-PN-DW (Other Solid Carcinomas); test: as above
Outline: as §1

[17] = system: COLO-680N (Esophageal Squamous Cell Carcinoma); test: combination Emax (second highest fraction inhibited in the dose matrix, 72 h); higher = more inhibition; extreme values may be limits of the assay
Outline: as §1

[18] = system: OPM-2 (Plasma Cell Myeloma); test: as above
Outline: as §1

[19] = system: RCM-1 (Colorectal Carcinoma); test: as above
Outline: as §1

SF539 (Glioblastoma) [20] = test: as above
Outline: as §1
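For Bliss excess, mean over the matrix in this document: after 72 h of two-drug dosing.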

## O=C(c1cc(Cc2n[nH]c(=O)c3ccccc23)ccc1F)N1CCN(C(=O)C2CC2)CC1 [Olaparib] + COc1nnc2ccc(N3CCC(c4ccc(OCCN5CCN(C)C(=O)[C@H]5C)cc4)CC3)nn12 [AZD5153] (first compound max 10 µM, 7x7, partner max 1 µM)
[1]
  Bliss excess: -0.0446
[2]
  Bliss excess: -0.072
[3]
  Bliss excess: -0.0184
[4]
  Bliss excess: -0.0571
[5]
  Bliss excess: -0.0147
[6]
  Bliss excess: -0.0253
[7]
  Bliss excess: 0.0122
[8]
  Bliss excess: -0.0521
[9]
  Bliss excess: -0.0776
[10]
  Bliss excess: -0.0518
[11]
  Bliss excess: -0.0337
[12]
  Bliss excess: -0.0473
[13]
  Bliss excess: 0.0378
[14]
  Bliss excess: 0.0101
SF539 (Glioblastoma) [15]
  Bliss excess: -0.0258
[16]
  Bliss excess: -0.0518
[17]
  combination Emax: 0.27
[18]
  combination Emax: 1
[19]
  combination Emax: 0.522
SF539 (Glioblastoma) [20]
  combination Emax: 0.642

## Cc1c2c(nn1C)CSCc1cc(n(C)n1)CSc1cc(c3ccccc3c1)OCCCc1c(C(=O)O)n(C)c3c-2c(Cl)ccc13 [AZD5991] + CS(=O)(=O)CCNCc1ccc(-c2ccc3ncnc(Nc4ccc(OCc5cccc(F)c5)c(Cl)c4)c3c2)o1 [Lapatinib] (first compound max 1 µM, 7x7, partner max 10 µM)
[1]
  Bliss excess: -0.011
[2]
  Bliss excess: -0.0305
[3]
  Bliss excess: 0.102
[4]
  Bliss excess: -0.019
[5]
  Bliss excess: -0.012
[6]
  Bliss excess: 0.012
[7]
  Bliss excess: -0.0145
[8]
  Bliss excess: 0.0371
[9]
  Bliss excess: -0.0485
[10]
  Bliss excess: 0.0072
[11]
  Bliss excess: -0.045
[12]
  Bliss excess: 0.0137
[13]
  Bliss excess: -0.038
[14]
  Bliss excess: -0.0174
SF539 (Glioblastoma) [15]
  Bliss excess: 0.0226
[16]
  Bliss excess: 0.0081
[17]
  combination Emax: 0.291
[18]
  combination Emax: 1
[19]
  combination Emax: 0.409
SF539 (Glioblastoma) [20]
  combination Emax: 0.479

## N#Cc1cnc(Nc2cc(NC[C@H]3CNCCO3)c(C(F)(F)F)cn2)cn1 [SRA737] + Nc1ccn([C@@H]2O[C@H](CO)[C@@H](O)C2(F)F)c(=O)n1 [Gemcitabine] (first compound max 10 µM, 7x7, partner max 0.3 µM)
[1]
  Bliss excess: 0.0092
[2]
  Bliss excess: 0.0564
[3]
  Bliss excess: 0.0485
[4]
  Bliss excess: 0.141
[5]
  Bliss excess: 0.0527
[6]
  Bliss excess: 0.14
[7]
  Bliss excess: 0.0238
[8]
  Bliss excess: -0.0588
[9]
  Bliss excess: -0.0023
[10]
  Bliss excess: 0.0514
[11]
  Bliss excess: 0.0721
[12]
  Bliss excess: 0.138
[13]
  Bliss excess: 0.0113
[14]
  Bliss excess: 0.118
SF539 (Glioblastoma) [15]
  Bliss excess: 0.0222
[16]
  Bliss excess: -0.0377
[17]
  combination Emax: 0.47
[18]
  combination Emax: 0.911
[19]
  combination Emax: 0.688
SF539 (Glioblastoma) [20]
  combination Emax: 0.947

## Cc1c2c(nn1C)CSCc1cc(n(C)n1)CSc1cc(c3ccccc3c1)OCCCc1c(C(=O)O)n(C)c3c-2c(Cl)ccc13 [AZD5991] + Nc1ccn([C@@H]2O[C@H](CO)[C@@H](O)C2(F)F)c(=O)n1 [Gemcitabine] (first compound max 1 µM, 7x7, partner max 0.3 µM)
[1]
  Bliss excess: -0.0215
[2]
  Bliss excess: 0.006
[3]
  Bliss excess: -0.0646
[4]
  Bliss excess: 0.0117
[5]
  Bliss excess: -0.0363
[6]
  Bliss excess: 0.0488
[7]
  Bliss excess: 0.0109
[8]
  Bliss excess: -0.0823
[9]
  Bliss excess: 0.0182
[10]
  Bliss excess: -0.0333
[11]
  Bliss excess: -0.0486
[12]
  Bliss excess: 0.0164
[13]
  Bliss excess: -0.0103
[14]
  Bliss excess: -0.0708
SF539 (Glioblastoma) [15]
  Bliss excess: 0.0133
[16]
  Bliss excess: 0.008
[17]
  combination Emax: 0.365
[18]
  combination Emax: 1
[19]
  combination Emax: 0.392
SF539 (Glioblastoma) [20]
  combination Emax: 0.886

## N#Cc1cnc(Nc2cc(NC[C@H]3CNCCO3)c(C(F)(F)F)cn2)cn1 [SRA737] + CCc1c2c(nc3ccc(O)cc13)-c1cc3c(c(=O)n1C2)COC(=O)[C@]3(O)CC [SN-38] (first compound max 10 µM, 7x7, partner max 0.3 µM)
[1]
  Bliss excess: 0.026
[2]
  Bliss excess: 0.0294
[3]
  Bliss excess: -0.0136
[4]
  Bliss excess: 0.154
[5]
  Bliss excess: 0.0626
[6]
  Bliss excess: 0.0737
[7]
  Bliss excess: 0.0183
[8]
  Bliss excess: -0.0769
[9]
  Bliss excess: -0.0648
[10]
  Bliss excess: -0.0536
[11]
  Bliss excess: -0.0149
[12]
  Bliss excess: -0.0427
[13]
  Bliss excess: -0.0324
[14]
  Bliss excess: 0.0914
SF539 (Glioblastoma) [15]
  Bliss excess: -0.0174
[16]
  Bliss excess: -0.0406
[17]
  combination Emax: 0.552
[18]
  combination Emax: 0.926
[19]
  combination Emax: 0.768
SF539 (Glioblastoma) [20]
  combination Emax: 0.971

## C=CCn1c(=O)c2cnc(Nc3ccc(N4CCN(C)CC4)cc3)nc2n1-c1cccc(C(C)(C)O)n1 [AZD1775] + Nc1ccn([C@@H]2O[C@H](CO)[C@@H](O)C2(F)F)c(=O)n1 [Gemcitabine] (first compound max 1 µM, partner max 0.3 µM)
[1]
  Bliss excess: 0.0195
[2]
  Bliss excess: 0.0379
[3]
  Bliss excess: -0.0076
[4]
  Bliss excess: 0.117
[5]
  Bliss excess: -0.0175
[6]
  Bliss excess: 0.0724
[7]
  Bliss excess: 0.0255
[8]
  Bliss excess: -0.025
[9]
  Bliss excess: -0.0383
[10]
  Bliss excess: -0.035
[11]
  Bliss excess: 0.0451
[12]
  Bliss excess: 0.0233
[13]
  Bliss excess: -0.0139
[14]
  Bliss excess: 0.0082
SF539 (Glioblastoma) [15]
  Bliss excess: 0.0282
[16]
  Bliss excess: -0.0347
[17]
  combination Emax: 0.419
[18]
  combination Emax: 0.953
[19]
  combination Emax: 0.593
SF539 (Glioblastoma) [20]
  combination Emax: 0.986

## C[C@@H](Nc1cc(F)cc(F)c1)c1cc(C(=O)N(C)C)cc2c(=O)cc(N3CCOCC3)oc12 [AZD8186] + C1CN(CCC1(C(=O)N[C@@H](CCO)C2=CC=C(C=C2)Cl)N)C3=NC=NC4=C3C=CN4 [AZD5363] (first compound max 10 µM, 7x7, partner max 10 µM)
[1]
  Bliss excess: -0.0335
[2]
  Bliss excess: -0.0271
[3]
  Bliss excess: -0.0371
[4]
  Bliss excess: 0.0061
[5]
  Bliss excess: -0.0505
[6]
  Bliss excess: 0.0003
[7]
  Bliss excess: -0.0756
[8]
  Bliss excess: -0.0719
[9]
  Bliss excess: -0.0239
[10]
  Bliss excess: -0.0245
[11]
  Bliss excess: -0.0065
[12]
  Bliss excess: 0.0062
[13]
  Bliss excess: -0.023
[14]
  Bliss excess: -0.0448
SF539 (Glioblastoma) [15]
  Bliss excess: 0.0225
[16]
  Bliss excess: -0.0137
[17]
  combination Emax: 0.245
[18]
  combination Emax: 0.922
[19]
  combination Emax: 0.233
SF539 (Glioblastoma) [20]
  combination Emax: 0.538

From the supplement of paper PMC11061612
